From patent publication US11752088B2, “Highly concentrated seawater mineral extract and uses thereof” (Oriel Seasalt Company Limited, priority 2015, dated 2023) come the findings set out here.

The nature of the assay: Flow Mediated Dilation (FMD) test. As to conditions: in vivo.

For the molecule `O=[N+]([O-])OCC(CO[N+](=O)[O-])O[N+](=O)[O-]` [Nitroglycerin], the FMD reading stood at 10 % FMD and the blood vessel diameter stood at 5.3 mm.
